Measurements as given in ChEMBL document CHEMBL5725313, “Highly selective c-Met inhibitors as anticancer agents” (2017).

Target: Hepatocyte growth factor receptor (Homo sapiens, UniProt P08581)
Assay: c-Met In Vitro Kinase Assay: Optiplate-384 well plate (PerKinElmer), kinase buffer (50 mM Hepes pH7.5, 25 mM NaCl, 2 mM DTT, 0.01% Tween 20, 5 mM Mg2+, 0.5 mM Mn2+), c-Met kinase (1038-1346AA, prepared in-house), c-Met substrate (PerKinElmer, #TRF0127-M), Lance@Eu-W 1024-anti-phosphotyrosine (PT66), (PerKinElmer, #AD0068), ATP (Invitrogen), DMSO (Sigma, #34869), water (Millipore, model Milli-Q). A mixture of c-Met kinase (final concentration 12.5 nM) and test compound (final DMSO is 0.5%) is pre-incubated at 30° C. for 20 min. Then ATP (final concentration 2.5 uM) and kinase substrate (final concentration 50 nM) are added. The resulting mixture is kept at 30° C. for 1 hr, followed by addition of the c-Met antibody. After 1 hr, the plate is read at 615 nm and 665 nm. The ratio of absorption values at 665 nm and 615 nm is calculated and used for the data analysis as follows. This assay has a Minimum Significant Ratio (MSA) of 2-3.

Hepatocyte growth factor receptor, sequence (P08581 whole entry): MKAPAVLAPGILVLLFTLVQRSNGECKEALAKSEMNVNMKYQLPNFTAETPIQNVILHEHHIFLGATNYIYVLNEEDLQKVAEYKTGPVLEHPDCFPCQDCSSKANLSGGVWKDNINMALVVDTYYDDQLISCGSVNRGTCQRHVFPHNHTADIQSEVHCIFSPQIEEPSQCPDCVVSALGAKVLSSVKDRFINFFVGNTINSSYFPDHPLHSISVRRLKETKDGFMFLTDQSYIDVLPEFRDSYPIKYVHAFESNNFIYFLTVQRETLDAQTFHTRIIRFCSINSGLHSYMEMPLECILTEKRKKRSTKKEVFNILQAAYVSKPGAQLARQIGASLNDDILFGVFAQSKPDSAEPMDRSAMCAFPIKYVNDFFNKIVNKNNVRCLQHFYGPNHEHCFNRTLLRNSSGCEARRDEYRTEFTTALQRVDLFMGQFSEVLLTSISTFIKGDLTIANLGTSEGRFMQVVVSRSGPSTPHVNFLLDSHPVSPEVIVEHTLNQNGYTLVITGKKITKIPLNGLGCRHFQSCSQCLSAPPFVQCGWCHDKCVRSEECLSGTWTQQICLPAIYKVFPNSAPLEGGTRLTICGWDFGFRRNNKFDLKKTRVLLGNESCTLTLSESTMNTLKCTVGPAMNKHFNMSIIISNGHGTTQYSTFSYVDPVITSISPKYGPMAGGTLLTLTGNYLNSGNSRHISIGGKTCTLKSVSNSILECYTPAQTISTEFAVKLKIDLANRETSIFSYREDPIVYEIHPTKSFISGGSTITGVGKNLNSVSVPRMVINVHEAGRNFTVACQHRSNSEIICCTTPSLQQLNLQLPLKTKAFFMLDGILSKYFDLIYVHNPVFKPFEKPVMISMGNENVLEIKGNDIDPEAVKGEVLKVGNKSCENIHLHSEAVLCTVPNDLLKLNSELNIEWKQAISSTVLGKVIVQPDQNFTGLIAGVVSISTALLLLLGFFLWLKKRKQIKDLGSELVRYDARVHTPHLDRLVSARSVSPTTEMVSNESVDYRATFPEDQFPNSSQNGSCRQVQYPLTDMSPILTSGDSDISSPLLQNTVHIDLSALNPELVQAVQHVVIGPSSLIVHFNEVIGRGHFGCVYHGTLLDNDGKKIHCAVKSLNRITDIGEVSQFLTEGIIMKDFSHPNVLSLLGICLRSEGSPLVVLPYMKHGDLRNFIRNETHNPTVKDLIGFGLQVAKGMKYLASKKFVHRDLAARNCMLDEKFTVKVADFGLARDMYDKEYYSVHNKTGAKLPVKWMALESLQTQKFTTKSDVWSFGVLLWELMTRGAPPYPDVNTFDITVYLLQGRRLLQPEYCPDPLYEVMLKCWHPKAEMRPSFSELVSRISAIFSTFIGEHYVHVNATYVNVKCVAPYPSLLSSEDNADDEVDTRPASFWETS

| IC50 | Structure (SMILES) |
| --- | --- |
| 0.261 µM | Cn1cc2c(F)c(C(F)(F)c3nnc4ccc(-c5cncc(F)c5)nn34)ccc2n1 |
| 0.119 µM | Cc1cncc(-c2ccc3nnc(C(F)(F)c4ccc5nn(C)cc5c4F)n3n2)c1 |
| 0.194 µM | Cn1cc2c(F)c(C(F)(F)c3nnc4ccc(-c5cncc(Cl)c5)nn34)ccc2n1 |
| 0.149 µM | CNC(=O)c1ccc(-c2ccc3nnc(C(F)(F)c4ccc5nn(C)cc5c4F)n3n2)cn1 |
